# Measured values reported in PubChem BioAssay (NCI).
#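 The compound was tested at five concentrations on cells cultured in 96-well plates, with a 48-hour exposure period. TGI: total growth inhibition.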
# Key:
# Test in all cases: NCI tumour cell line growth inhibition, 48 h
# UACC-257 melanoma = test system: UACC-257 melanoma
# NCI-H23 lung = test system: NCI-H23 lung
# SK-MEL-5 melanoma = test system: SK-MEL-5 melanoma
# DLD-1 colon = test system: DLD-1 colon
# LOX IMVI melanoma = test system: LOX IMVI melanoma
# IGROV1 ovarian = test system: IGROV1 ovarian
# P388/ADR leukemia = test system: P388/ADR leukemia
# COLO 205 colon = test system: COLO 205 colon
# HOP-18 NSCLC = test system: HOP-18 NSCLC
# SF-295 CNS = test system: SF-295 CNS
# A498 renal = test system: A498 renal
# SK-OV-3 ovarian = test system: SK-OV-3 ovarian
# SW-620 colon = test system: SW-620 colon
# DMS 114 small cell lung = test system: DMS 114 small cell lung
# OVCAR-3 ovarian = test system: OVCAR-3 ovarian
# MALME-3M melanoma = test system: MALME-3M melanoma
# HCT-15 colon = test system: HCT-15 colon
# OVCAR-8 ovarian = test system: OVCAR-8 ovarian
# RXF 393 renal = test system: RXF 393 renal
# HOP-92 NSCLC = test system: HOP-92 NSCLC
# OVCAR-5 ovarian = test system: OVCAR-5 ovarian
# SK-MEL-2 melanoma = test system: SK-MEL-2 melanoma
# MCF7 breast = test system: MCF7 breast
# A549 NSCLC = test system: A549 NSCLC
# SNB-19 CNS = test system: SNB-19 CNS
# EKVX NSCLC = test system: EKVX NSCLC
# UO-31 renal = test system: UO-31 renal
# UACC-62 melanoma = test system: UACC-62 melanoma
# RPMI-8226 leukemia = test system: RPMI-8226 leukemia
# SNB-75 CNS = test system: SNB-75 CNS
# SK-MEL-28 melanoma = test system: SK-MEL-28 melanoma
# KM20L2 colon = test system: KM20L2 colon
# NCI-H226 lung = test system: NCI-H226 lung
# NCI-H522 lung = test system: NCI-H522 lung
# M19-MEL melanoma = test system: M19-MEL melanoma
# SN12C renal = test system: SN12C renal
# SN12K1 renal = test system: SN12K1 renal
# CAKI-1 renal = test system: CAKI-1 renal
# HOP-62 NSCLC = test system: HOP-62 NSCLC
# NCI-H460 lung = test system: NCI-H460 lung
# KM12 colon = test system: KM12 colon
# OVCAR-4 ovarian = test system: OVCAR-4 ovarian
# NCI/ADR-RES ovarian = test system: NCI/ADR-RES ovarian
# MOLT-4 leukemia = test system: MOLT-4 leukemia
# DMS 273 small cell lung = test system: DMS 273 small cell lung
# SNB-78 CNS = test system: SNB-78 CNS
# HL-60(TB) leukemia = test system: HL-60(TB) leukemia
# SF-268 CNS = test system: SF-268 CNS
# HT29 colon = test system: HT29 colon
# K-562 leukemia = test system: K-562 leukemia
# HCT-116 colon = test system: HCT-116 colon
# SF-539 CNS = test system: SF-539 CNS
# XF 498 CNS = test system: XF 498 CNS
# HCC-2998 colon = test system: HCC-2998 colon
compound,measurement,setting,value
COc1cc(C2c3cc4c(cc3[C@@H](Nc3cccc([N+](=O)[O-])c3)C3COC(=O)[C@H]23)OCO4)cc(OC)c1O (some centres undefined),TGI,UACC-257 melanoma,35.2 µM
same,TGI,NCI-H23 lung,4.65 µM
same,TGI,SK-MEL-5 melanoma,7.87 µM
same,TGI,DLD-1 colon,17.1 µM
same,TGI,LOX IMVI melanoma,19.6 µM
same,TGI,IGROV1 ovarian,> 84.4 µM
same,TGI,P388/ADR leukemia,5.58 µM
same,TGI,COLO 205 colon,18.1 µM
same,TGI,HOP-18 NSCLC,39.3 µM
same,TGI,SF-295 CNS,4.94 µM
same,TGI,A498 renal,4.47 µM
same,TGI,SK-OV-3 ovarian,9.67 µM
same,TGI,SW-620 colon,> 65.4 µM
same,TGI,DMS 114 small cell lung,9.18 µM
same,TGI,OVCAR-3 ovarian,33.2 µM
same,TGI,MALME-3M melanoma,20.1 µM
same,TGI,HCT-15 colon,4.12 µM
same,TGI,OVCAR-8 ovarian,> 32.9 µM
same,TGI,RXF 393 renal,7.41 µM
same,TGI,HOP-92 NSCLC,27.7 µM
same,TGI,OVCAR-5 ovarian,> 100 µM
same,TGI,SK-MEL-2 melanoma,36.5 µM
same,TGI,MCF7 breast,> 100 µM
same,TGI,A549 NSCLC,4.38 µM
same,TGI,SNB-19 CNS,> 31.4 µM
same,TGI,EKVX NSCLC,> 38.2 µM
same,TGI,UO-31 renal,> 29 µM
same,TGI,UACC-62 melanoma,15.7 µM
same,TGI,RPMI-8226 leukemia,32.1 µM
same,TGI,SNB-75 CNS,> 22.7 µM
same,TGI,SK-MEL-28 melanoma,> 100 µM
same,TGI,KM20L2 colon,> 42 µM
same,TGI,NCI-H226 lung,7.94 µM
same,TGI,NCI-H522 lung,11.7 µM
same,TGI,M19-MEL melanoma,> 100 µM
same,TGI,SN12C renal,> 22.2 µM
same,TGI,SN12K1 renal,10.3 µM
same,TGI,CAKI-1 renal,7.46 µM
same,TGI,HOP-62 NSCLC,3.31 µM
same,TGI,NCI-H460 lung,1.72 µM
same,TGI,KM12 colon,16.9 µM
same,TGI,OVCAR-4 ovarian,> 100 µM
same,TGI,NCI/ADR-RES ovarian,> 54.2 µM
same,TGI,MOLT-4 leukemia,3.37 µM
same,TGI,DMS 273 small cell lung,6.11 µM
same,TGI,SNB-78 CNS,53.9 µM
same,TGI,HL-60(TB) leukemia,4.3 µM
same,TGI,SF-268 CNS,> 51.5 µM
same,TGI,HT29 colon,13.1 µM
same,TGI,K-562 leukemia,> 40.5 µM
same,TGI,HCT-116 colon,21.6 µM
same,TGI,SF-539 CNS,4.02 µM
same,TGI,XF 498 CNS,> 40.2 µM
same,TGI,HCC-2998 colon,6.41 µM
